Measurements taken from patent publication US9243009B2, “Phosphate ester compound of hydroxy acid substituted phenol ester, preparation method and medical use thereof” (West China Hospital, Sichuan University, priority 2010, dated 2016).

Experiments:
[1] = in words, prior-art prodrug of WO200213810; cited from earlier work
[2] = in words, prior-art prodrug of WO200213810; cited from earlier work; remark: listed apart in the source
[3] = system: Kunming mice; conditions: tail vein injection; for Median effective dose (ED50): disappearance of FRR; for disappearance time of FRR (onset time) / recovery time (recovery of FRR): during the determination of ED50; for anesthetic effect: in words
Method: Median effective doses (ED50) of propofol hydroxybutyrate phosphate disodium salt and Diprivan™ were determined by the up-and-down method. In the test, the mice were injected with the drugs through the tail veins, with the disappearance of the forepaw righting reflex (FRR) of the mice as a judgment index of the end point of anesthesia; the recovery of FRR of the mice as an index of recovery from anesthesia.
In the test, the mice were injected with the drugs through the tail veins, with the disappearance of the forepaw righting reflex (FRR) of the mice as a judgment index of the end point of anesthesia; the recovery of FRR of the mice as an index of recovery from anesthesia.

Molecule	stability in aqueous solution [1]	water solubility [2]	Median effective dose (ED50) [3]	disappearance time of FRR (onset time) [3]	recovery time (recovery of FRR) [3]	anesthetic effect [3]
CC(C)c1cccc(C(C)C)c1OC(=O)CCC(=O)[O-].[Na+] [propofol succinic acid monoester sodium salt]	unstable in aqueous solution	high water-solubility	–	–	–	–
propofol w-hydroxybutyrate phosphate disodium salt	–	–	130 mg/kg	150.6 ± 42.1 s	480.6 ± 124.3 s	definite and reversible anesthetic effect
propofol w-hydroxyvalerate phosphate disodium salt	–	–	152 mg/kg	180.8 ± 45.6 s	500.1 ± 114.6 s	definite and reversible anesthetic effect
